Read-outs that look alike come from different tables or passages of the source.
Assays:
[1] = log Kapp(Hg(II)) - log Kapp(Zn(II)), pH 7.4, 298 K
From the text: (§1) The selectivity between two metals M/M′ corresponds to the selectivity of the ligand for the metal M compared with that for the metal M′, this selectivity being equal to: log(Kapp(M)/Kapp(M′))=log Kapp(M)−log Kapp(M′)

[2] = pH 7.4, 298 K
From the text: These treatments must be followed for life, and must never be interrupted. They are based on chelating drugs which reduce the absorption of copper in the body, or which increase the excretion of this metal. The treatments must be subject to periodic monitoring, so as to detect the appearance of undesirable side effects.
as §1

[3] = log Kapp(Cu(II)) - log Kapp(Zn(II))

Structure (SMILES)	Selectivity Hg/Zn [1]	Selectivity Cu/Zn [2, 3]	Selectivity Cu/Zn ([2]; log Kapp(Cu(I)) - log Kapp(Zn(II)))
OCC(S)CS (stereo not shown) [BAL, 2,3-dimercaptopropanol]	12.2	–	–
O=C(O)CN(CCN(CC(=O)O)CC(=O)O)CC(=O)O [EDTA, ethylenediaminetetraacetic acid]	5	2.3	–
CC(C)(S)[C@@H](N)C(=O)O [Pen, D-penicillamine]	9.1	–	2.5
NCCNCCNCCN [Trien, triethylenetetramine]	12.7	8.1	–

Reference: patent publication US9856294B2, “Cyclodecapeptide compounds for use as drugs” (Commissariat A L'Energie Atomique Et Aux Energies …, priority 2010, dated 2018)
